Results published in patent US20240417372A1, “ESTERS OF A RETINOID AND BAKUCHIOL AND PREPARATIONS THEREOF” (Conagen Inc., priority 2021, published 2024).

Legend:
Type in all cases: cell-based
Settings in all cases: for Fold Activation: RLU vs DMSO, 23 hours
RAR alpha = molecular target: T1, RAR alpha (Homo sapiens, UniProt P10276); experiment: RAR alpha Gal4-hybrid luciferase reporter cell agonist assay
T1 sequence (P10276 183-417 limits assumed): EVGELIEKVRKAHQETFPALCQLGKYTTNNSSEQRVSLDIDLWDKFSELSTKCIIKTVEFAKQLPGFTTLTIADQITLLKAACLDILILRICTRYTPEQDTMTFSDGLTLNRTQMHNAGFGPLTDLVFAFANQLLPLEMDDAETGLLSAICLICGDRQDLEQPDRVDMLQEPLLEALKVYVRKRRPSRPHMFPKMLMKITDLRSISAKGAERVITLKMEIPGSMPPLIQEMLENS
Experimental: (§1) Reporter Cells (Indigo Biosciences, catalog #IB02201, IB02101, IB00821) used in the assays express a receptor hybrid in which the native N-terminal DNA binding domain (DBD) has been replaced with that of the yeast Gal4 DBD. The reporter gene, firefly luciferase, is functionally linked to the Gal4 upstream activation sequence (UAS). Receptor assays were performed as described in Steps 1 to 3 below.
(§2) Step 1: A suspension of Reporter Cells was prepared in Cell Recovery Medium (CRM: containing charcoal-stripped FBS) and 100 μl of the Reporter Cell suspension was dispensed into wells of a white 96-well assay plate.
(§3) Step 2: Test and reference compound master stocks were prepared as solutions at 1,000× concentration’ in DMSO relative to the final treatment concentration. This intermediate stock was subsequently diluted directly into INDIGO Biosciences's Compound Screening Medium (CSM; containing charcoal-stripped FBS) to generate ‘2×-concentration’ treatment media. 100 μL of each prepared treatment medium was dispensed into duplicate assay wells pre-dispensed with a 100 μL suspension of Reporter Cells, thereby achieving the desired final treatment concentrations. The concentration of residual DMSO in all assay wells was 0.1% for the test and reference compounds. Assay plates were incubated at 37° C., 5% CO2 and ˜70% humidity for 23 hours. DMSO control was used to determine background activity. Retinoic acid was used with its EC100 concentration to show 100% activity of each receptor. Retinol was used as positive control.
(§4) Step 3: Following the incubation period, treatment media were discarded and 100 μL/well of Luciferase Detection Reagent was added per well to determine receptor activity in terms of relative luminescence units (RLUs). Data processing: fold activation: [Ave RLU Test Cmpd/Ave RLU DMSO].

RAR beta = molecular target: T2, RAR beta (Homo sapiens, UniProt P10826); experiment: RAR beta Gal4-hybrid luciferase reporter cell agonist assay
T2 sequence (P10826 183-417 limits assumed): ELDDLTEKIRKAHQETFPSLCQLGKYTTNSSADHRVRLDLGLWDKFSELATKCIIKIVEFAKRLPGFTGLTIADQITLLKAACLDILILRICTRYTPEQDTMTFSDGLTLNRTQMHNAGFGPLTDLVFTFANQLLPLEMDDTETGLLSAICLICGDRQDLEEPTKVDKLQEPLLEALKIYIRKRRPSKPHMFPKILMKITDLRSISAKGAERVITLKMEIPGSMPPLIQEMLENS
Experimental: as §1, §2, §3, §4

RAR gamma = RAR gamma Gal4-hybrid luciferase reporter cell agonist assay
Experimental: as §1, §2, §3, §4

Row | Fold Activation (RAR alpha; RAR alpha, 0.1 μM) | Fold Activation (RAR alpha; RAR alpha, 1 μM) | activity compared with retinol (in words) (RAR alpha; RAR alpha, at 0.1 μm and 0.01 μm) | agonist activity towards RAR alpha (in words) (RAR alpha; summary of Table 1) | Fold Activation (RAR beta; RAR beta, 0.1 μM) | Fold Activation (RAR beta; RAR beta, 1 μM) | activity compared with retinol (in words) (RAR beta; RAR beta, at 0.1 μm and 0.01 μm) | agonist activity towards RAR beta (in words) (RAR beta; summary of Table 1) | Compound | Fold Activation (RAR gamma; RAR gamma, 0.1 μM) | Fold Activation (RAR gamma; RAR gamma, 1 μM) | activity compared with retinol (in words) (RAR gamma; RAR gamma, at 0.1 μm and 0.01 μm) | agonist activity towards RAR gamma (in words) (RAR gamma; summary of Table 1) | Fold Activation (RAR gamma; RAR gamma, 0.1 μM (EC100 concentration of retinoic acid))
1 | 26.0 | 979 | more active than retinol | exhibited agonist activity | 12.6 | 169 | more active than retinol | exhibited agonist activity | C=C[C@](C)(/C=C/c1ccc(OC(=O)/C=C(C)/C=C/C=C(C)/C=C/C2=C(C)CCCC2(C)C)cc1)CCC=C(C)C [Bakuchoyl retinoate of Formula I] | 41.0 | 541 | more active than retinol | exhibited agonist activity | –
2 | – | – | – | – | – | – | – | – | CC1=C(/C=C/C(C)=C/C=C/C(C)=C/C(=O)O)C(C)(C)CCC1 [Retinoic acid, reference compound] | – | – | – | – | 706
3 | 6.35 | 518 | – | – | 4.91 | 127 | – | – | CC1=C(/C=C/C(C)=C/C=C/C(C)=C/CO)C(C)(C)CCC1 [Retinol, reference compound] | 18.5 | 368 | – | – | –
